Molecular target: T1, human TLR7 (Homo sapiens, UniProt Q9NYK1)
T1 construct: host or cells: HEK293 (HEK-Blue hTLR7)
T1 sequence (Q9NYK1 27-1049): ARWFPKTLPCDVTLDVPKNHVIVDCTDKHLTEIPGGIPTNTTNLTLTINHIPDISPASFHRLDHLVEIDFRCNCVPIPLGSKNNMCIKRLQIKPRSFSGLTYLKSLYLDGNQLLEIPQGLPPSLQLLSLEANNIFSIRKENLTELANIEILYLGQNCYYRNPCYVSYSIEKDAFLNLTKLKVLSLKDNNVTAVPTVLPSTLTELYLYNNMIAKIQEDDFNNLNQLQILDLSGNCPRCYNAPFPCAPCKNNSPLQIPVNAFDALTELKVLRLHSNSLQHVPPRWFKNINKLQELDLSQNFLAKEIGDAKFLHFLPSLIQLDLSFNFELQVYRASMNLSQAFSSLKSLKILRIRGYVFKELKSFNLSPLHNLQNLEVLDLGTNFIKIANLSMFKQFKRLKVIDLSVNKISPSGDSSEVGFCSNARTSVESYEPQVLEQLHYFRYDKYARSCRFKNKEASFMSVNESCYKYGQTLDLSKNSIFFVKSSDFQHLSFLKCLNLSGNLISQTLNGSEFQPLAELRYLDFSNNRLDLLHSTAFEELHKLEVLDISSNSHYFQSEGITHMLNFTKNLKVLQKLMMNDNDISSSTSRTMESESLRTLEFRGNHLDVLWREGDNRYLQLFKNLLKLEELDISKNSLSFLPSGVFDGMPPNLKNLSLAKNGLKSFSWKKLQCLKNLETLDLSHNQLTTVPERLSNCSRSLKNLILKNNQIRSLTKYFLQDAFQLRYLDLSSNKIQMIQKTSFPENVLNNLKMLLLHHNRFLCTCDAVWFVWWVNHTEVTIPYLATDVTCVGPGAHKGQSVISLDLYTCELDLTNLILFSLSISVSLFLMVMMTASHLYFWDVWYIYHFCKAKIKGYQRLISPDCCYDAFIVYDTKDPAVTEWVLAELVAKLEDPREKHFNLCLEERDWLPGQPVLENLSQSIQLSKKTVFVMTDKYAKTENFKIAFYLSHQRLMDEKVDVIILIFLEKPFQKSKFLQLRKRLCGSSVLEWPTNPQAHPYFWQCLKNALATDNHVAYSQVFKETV
Experiment: HEK293-Blue-hTLR-7 cells assay
Type: cell-based
Settings: HEK293-Blue-hTLR7 cells, R848 stimulation, 20 hrs; read-out: HEK/hTLR7 IC50
From the text: A stable HEK293-Blue-hTLR-7 cell line was purchased from InvivoGen (Cat. #: hkb-htlr7, San Diego, California, USA). These cells were originally designed for studying the stimulation of human TLR7 by monitoring the activation of NF-κB. A SEAP (secreted embryonic alkaline phosphatase) reporter gene was placed under the control of the IFN-β minimal promoter fused to five NF-κB and AP-1-binding sites. The SEAP was induced by activating NF-κB and AP-1 via stimulating HEK-Blue hTLR7 cells with TLR7 ligands. Therefore the reporter expression was declined by TLR7 antagonist under the stimulation of a ligand, such as R848 (Resiquimod), for incubation of 20 hrs. The cell culture supernatant SEAP reporter activity was determined using QUANTI-Blue™ kit (Cat. #: rep-qbl, Invivogen, San Diego, Ca, USA) at a wavelength of 640 nm, a detection medium that turns purple or blue in the presence of alkaline phosphatase.
HEK293-Blue-hTLR7 cells were incubated at a density of 250,000-450,000 cells/mL in a volume of 170 μL in a 96-well plate in Dulbecco's Modified Eagle's medium (DMEM) containing 4.5 g/L glucose, 50 U/mL penicillin, […] streptomycin, […] Normocin, […] L-glutamine, 10% […] heat-inactivated fetal bovine serum with addition of 20 μL test compound in a serial dilution in the presence of final DMSO at 1% and 10 μL of 20 μM R848 in above DMEM, perform incubation under 37° C. in a CO2 incubator for 20 hrs. Then 20 μL of the supernatant from each well was incubated with 180 μL Quanti-blue substrate solution at 37° C. for 2 hrs and the absorbance was read at […] using a spectrophotometer. The signaling pathway that TLR7 activation leads to downstream NF-κB activation has been widely accepted, and therefore similar reporter assay was modified for evaluating TLR7 antagonist.

Row | IC50 | SMILES
1 | 50 nM | Cc1cc(N2CCC(c3cnc(N4CCNCC4)cc3C)[C@H](C)C2)c2cnn(C)c2n1 (single isomer, unassigned) [Example 20, 1,6-dimethyl-4-[cis-3-methyl-4-(4-methyl-6-piperazin-1-yl-3-pyridyl)-1-piperidyl]pyrazolo[3,4-b]pyridine]
2 | 16 nM | Cc1cc(N2CCC(c3cnc(N4CCNCC4)cc3C)[C@H](C)C2)c2cnn(C)c2n1 (single isomer, unassigned) [Example 21, 1,6-dimethyl-4-[trans-3-methyl-4-(4-methyl-6-piperazin-1-yl-3-pyridyl)-1-piperidyl]pyrazolo[3,4-b]pyridine]
3 | 49 nM | Cc1cc(N2CCC(c3ncc(N4CCNCC4)nc3C)[C@H](C)C2)c2cnn(C)c2n1 (single isomer, unassigned) [Example 22, 1,6-dimethyl-4-[cis-3-methyl-4-(3-methyl-5-piperazin-1-yl-pyrazin-2-yl)-1-piperidyl]pyrazolo[3,4-b]pyridine]
4 | 11 nM | Cc1cc(N2CCC(c3ncc(N4CCNCC4)nc3C)[C@H](C)C2)c2cnn(C)c2n1 (single isomer, unassigned) [Example 23, 1,6-dimethyl-4-[trans-3-methyl-4-(3-methyl-5-piperazin-1-yl-pyrazin-2-yl)-1-piperidyl]pyrazolo[3,4-b]pyridine]
5 | 82 nM | Cc1cc(N2CCC(c3ncc(N4CCNCC4)cc3C)[C@H](C)C2)c2cnn(C)c2n1 (single isomer, unassigned) [Example 24, 1,6-dimethyl-4-[cis-3-methyl-4-(3-methyl-5-piperazin-1-yl-2-pyridyl)-1-piperidyl]pyrazolo[3,4-b]pyridine]
6 | 9 nM | Cc1cc(N2CCC(c3ncc(N4CCNCC4)cc3C)[C@H](C)C2)c2cnn(C)c2n1 (single isomer, unassigned) [Example 25, 1,6-dimethyl-4-[trans-3-methyl-4-(3-methyl-5-piperazin-1-yl-2-pyridyl)-1-piperidyl]pyrazolo[3,4-b]pyridine]
7 | 53 nM | Cc1cc(N2CCC(c3ccc(N4CCNCC4)cc3)CC2)c2cnn(C)c2n1 [Example 1, 1,6-dimethyl-4-[4-(4-piperazin-1-ylphenyl)-1-piperidyl]pyrazolo[3,4-b]pyridine]
8 | 27 nM | Cc1cc(N2CCC(c3ccc(N4CCNCC4)cn3)CC2)c2cnn(C)c2n1 [Example 2, 1,6-dimethyl-4-[4-(5-piperazin-1-yl-2-pyridyl)-1-piperidyl]pyrazolo[3,4-b]pyridine]
9 | 20 nM | Cc1cc(N2CCC(c3cnc(N4CCNCC4)cn3)CC2)c2cnn(C)c2n1 [Example 3, 1,6-dimethyl-4-[4-(5-piperazin-1-ylpyrazin-2-yl)-1-piperidyl]pyrazolo[3,4-b]pyridine]
10 | 31 nM | Cc1cc(N2CCC(c3ncc(N4CCNCC4)cn3)CC2)c2cnn(C)c2n1 [Example 4, 1,6-dimethyl-4-[4-(5-piperazin-1-ylpyrimidin-2-yl)-1-piperidyl]pyrazolo[3,4-b]pyridine]
11 | 8 nM | Cc1cc(N2CCNCC2)cnc1C1CCN(c2ccnc3c2cnn3C)CC1 [Example 5, 1-methyl-4-[4-(3-methyl-5-piperazin-1-yl-2-pyridyl)-1-piperidyl]pyrazolo[3,4-b]pyridine]
12 | 7 nM | Cc1cc(N2CCNCC2)ncc1C1CCN(c2ccnc3c2cnn3C)CC1 [Example 6, 1-methyl-4-[4-(4-methyl-6-piperazin-1-yl-3-pyridyl)-1-piperidyl]pyrazolo[3,4-b]pyridine]
13 | 11 nM | Cc1cc(N2CCC(c3ncc(N4CCNCC4)cc3C)CC2)c2cnn(C)c2n1 [Example 7, 1,6-dimethyl-4-[4-(3-methyl-5-piperazin-1-yl-2-pyridyl)-1-piperidyl]pyrazolo[3,4-b]pyridine]
14 | 52 nM | Cc1cc(N2CCC(c3cnc(N4CCNCC4)cc3C)CC2)c2cnn(C)c2n1 [Example 8, 1,6-dimethyl-4-[4-(4-methyl-6-piperazin-1-yl-3-pyridyl)-1-piperidyl]pyrazolo[3,4-b]pyridine]
15 | 39 nM | Cc1cc(N2CCC(c3cc(C)c(N4CCNCC4)cn3)CC2)c2cnn(C)c2n1 [Example 9, 1,6-dimethyl-4-[4-(4-methyl-5-piperazin-1-yl-2-pyridyl)-1-piperidyl]pyrazolo[3,4-b]pyridine]
16 | 39 nM | Cc1cc(N2CCC(c3ccc(N4CCNCC4)nc3C)CC2)c2cnn(C)c2n1 [Example 10, 1,6-dimethyl-4-[4-(2-methyl-6-piperazin-1-yl-3-pyridyl)-1-piperidyl]pyrazolo[3,4-b]pyridine]
17 | 37 nM | Cc1cc(N2CCC(c3cnc(N4CCNCC4)nc3C)CC2)c2cnn(C)c2n1 [Example 11, 1,6-dimethyl-4-[4-(4-methyl-2-piperazin-1-yl-pyrimidin-5-yl)-1-piperidyl]pyrazolo[3,4-b]pyridine]
18 | 26 nM | CCc1cc(N2CCNCC2)cnc1C1CCN(c2cc(C)nc3c2cnn3C)CC1 [Example 13, 4-[4-(3-ethyl-5-piperazin-1-yl-2-pyridyl)-1-piperidyl]-1,6-dimethyl-pyrazolo[3,4-b]pyridine]
19 | 12 nM | COc1cc(N2CCNCC2)cnc1C1CCN(c2cc(C)nc3c2cnn3C)CC1 [Example 14, 4-[4-(3-methoxy-5-piperazin-1-yl-2-pyridyl)-1-piperidyl]-1,6-dimethyl-pyrazolo[3,4-b]pyridine]
20 | 24 nM | Cc1cc(N2CCC(c3ncc(N4CC[C@@H](N)[C@@H](F)C4)cc3C)CC2)c2cnn(C)c2n1 [Example 15, (3S,4R)-1-[6-[1-(1,6-dimethylpyrazolo[3,4-b]pyridin-4-yl)-4-piperidyl]-5-methyl-3-pyridyl]-3-fluoro-piperidin-4-amine]
21 | 23 nM | COC[C@H]1CN(c2cnc(C3CCN(c4cc(C)nc5c4cnn5C)CC3)c(C)c2)CCN1 [Example 16, 4-[4-[5-[(3R)-3-(methoxymethyl)piperazin-1-yl]-3-methyl-2-pyridyl]-1-piperidyl]-1,6-dimethyl-pyrazolo[3,4-b]pyridine]
22 | 22 nM | CO[C@H]1CN(c2cnc(C3CCN(c4cc(C)nc5c4cnn5C)CC3)c(C)c2)CC[C@@H]1N [Example 17, (3S,4S)-1-[6-[1-(1,6-dimethylpyrazolo[3,4-b]pyridin-4-yl)-4-piperidyl]-5-methyl-3-pyridyl]-3-methoxy-piperidin-4-amine]
23 | 12 nM | CO[C@@H]1CN(c2cnc([C@@H]3CCN(c4cc(C)nc5c4cnn5C)C[C@H]3C)c(C)c2)C[C@H]1N [Example 26, (3R,4R)-1-[6-[(3S,4R)-1-(1,6-dimethylpyrazolo[3,4-b]pyridin-4-yl)-3-methyl-4-piperidyl]-5-methyl-3-pyridyl]-4-methoxy-pyrrolidin-3-amine]
24 | 9 nM | Cc1cc(N2CC[C@@H](c3ncc(N4CC5(CNCCO5)C4)cc3C)[C@H](C)C2)c2cnn(C)c2n1 [Example 27, 2-[6-[(3S,4R)-1-(1,6-dimethylpyrazolo[3,4-b]pyridin-4-yl)-3-methyl-4-piperidyl]-5-methyl-3-pyridyl]-5-oxa-2,8-diazaspiro[3.5]nonane]
25 | 7 nM | Cc1cc(N2CC[C@@H](c3ncc(N4CCOC[C@@H](N)C4)cc3C)[C@H](C)C2)c2cnn(C)c2n1 [Example 28, (6S)-4-[6-[(3S,4R)-1-(1,6-dimethylpyrazolo[3,4-b]pyridin-4-yl)-3-methyl-4-piperidyl]-5-methyl-3-pyridyl]-1,4-oxazepan-6-amine]

Reference: patent publication US20240360126A1, “PYRAZOLO[3,4-B]PYRIDINE COMPOUNDS FOR THE TREATMENT OF AUTOIMMUNE DISEASE” (Hoffmann-La Roche Inc., priority 2021, published 2024)
